The test system of assay [1] is mouse embryonic fibroblasts (MEFs). Put plainly: OSKM reprogramming of MEFs with drug treatment, alkaline phosphatase (AP) staining / sensitivity score. It is filed as cell-based. Here is the method:
For infection, P1 mouse embryonic fibroblasts (MEFs) were thawed and plated at 1×10^6 cells per 10 cm dish on the previous day. Infection proceeded in two rounds with 8 h to 9 h in between. Briefly, cells were incubated with an OSKM/rtta virus mix (1:1), supplemented with 8 ug/ml protamine sulfate (Fisher Scientific #0219472905). The infection mix was removed on the following day and cells were left to recover in fresh MEF media (DMEM HG Thermo Fisher Scientific #10569010 with 10% FBS Atlanta Biologicals #S11150, Glutamax Thermo Fisher Scientific #35050079 and PenStrep Thermo Fisher Scientific 15140163).
Two days after infection, cells were re-plated for transduction efficiency assessment on day 3, molecular analyses on day 5, colony picking on day 16 and alkaline phosphatase (AP) staining on day 20. In each experiment, infected fibroblasts from the different genotypes were replated at multiple densities to allow for optimal reprogramming efficiency. For wild-type cells, 100-300 cells/mm^2 (20-60K per well of a 24 w dish) routinely generated high numbers of iPS cell clones. Besides for wild-type, 20-60K per well of a 24 w dish was also optimal for the Bard1 point mutants, Brca1^tr/+ and all combination mutations with Smarcal1 or 53bp1; Brca1^tr/tr, 53bp1^−/− as well as the heterozygous or homozygous Smarcal1 and 53bp1 single mutants. […] The remaining Brca1^tr/tr53BP1^+/− genotype was re-plated at 450 cells/mm^2 (90K/well of a 24 w dish). These seeding densities were later used to calculate the reprogramming efficiency of each genotype. The OSKM reprogramming factors were induced with 1 ug/ml doxycycline (Sigma #D9891) in mouse embryonic stem (mES) cell media, consisting of Knockout DMEM (Life Technologies #10829-018), supplemented with 15% Knockout Serum Replacement (Life Technologies #10828-028), Glutamax (Thermo Fisher Scientific #35050079), MEM NEAA (Life Technologies #11140050), PenStrep (Thermo Fisher Scientific 15140163), 2-mercaptoetahnol (Life Technologies #21985-023) and […] LIF (eBioscience #34-8521-82). Transduction efficiency was determined on reprogramming day 3 by staining for Sox2 (Stemgent #09-0024) and used in the calculation of reprograming efficiency. The reprogramming experiments with drug treatment used aphidicolin (Sigma #A0781) at 0.2 uM, Ttpotecan (Sigma #T2705) at 10 nM or the DNA PK inhibitor NU7026 (Tocris #2828) at 5 uM for 8 days during reprogramming.
Alternatively, for the induction of two-ended DSBs, cells were subjected to a single dose of 6 Gy IR 1 day post doxycycline-mediated OSKM factor induction. Cells were fixed on reprogramming day 18-20 and stained for alkaline phosphatase with the Vector Red detection kit (Vector Laboratories #SK-5100). Reprogramming efficiency was determined by considering the number of AP-positive colonies per number of infected cells, determined by Sox2 staining at the optimal plating density for each genotype. The sensitivity score in the experiments with aphidicolin, topotecan and IR was calculated as follows: the reprogramming efficiency of wild-type treated cells was determined as described above and normalized to the reprogramming efficiency of wild type untreated cells. The same procedure was applied to each mutant genotype. The sensitivity score was obtained by calculating the ratio of treated wild type (normalized to untreated wild type) to treated mutant (normalized to untreated mutant). A large score corresponds to high sensitivity.

Assay [2] relates to wild-type uninfected MEFs. Put plainly: 53bp1 foci immunofluorescence in uninfected fibroblasts treated with aphidicolin. Format: cell-based, mouse. To be noted: 0.2 uM aphidicolin for 3 days. Here is the method: Detection of […], phospho RPA(S33) and 53bp1 was performed on reprogramming D5 with the following antibodies: Phospho-RPA2Ser33 (Invitrogen #PA5-39809); Anti-phosphoHistone H2A.X-Ser139 (Millipore #05-636); and 53BP1 Antibody H-300 (Santa Cruz #22760). For detection of Rad51, iPS cell lines were irradiated with 10 Gy and stained with Rad51 (Ab-1) Rabbit pAb (Millipore #PC130) 1.5 h post IR.
The DNA damage observed in the form of phosphorylated H2AX during reprogramming can be the result of global epigenetic remodeling (Hernandez et al., 2018), oxidative stress (Ji et al., 2014) or elevated replication stress (Ruiz et al., 2015). To determine the specific type of DNA damage which is most limiting to iPS cell generation, mouse embryonic fibroblasts (MEFs) were treated during reprogramming with the DNA polymerase inhibitor aphidicolin, which induces one-ended double strand breaks (DSBs), processed by HDR (Rothkamm et al., 2003). To test the effect of aphidicolin on primary cells, uninfected wild type fibroblasts were incubated with 0.2 uM aphidicolin for 3 days and noted an increase in the numbers of 53bp1 foci (FIG. 4B).

With `O=c1cc(N2CCOCC2)oc2c1ccc1ccccc12` [DNA PK inhibitor, NU7026], the efficiency of reprogramming result in assay [1] (wild type MEFs, 5 uM DNA PK inhibitor for 8 days during reprogramming) was “no effect”.

`C[C@@]1(CO)[C@H](O)CC[C@@]2(C)[C@H]1CC[C@H]1C[C@@H]3C[C@@]12CC[C@]3(O)CO` [aphidicolin]: the sensitivity of reprogramming result in assay [1] (53bp1^-/- mutants, 0.2 uM aphidicolin for 8 days during reprogramming) is “less sensitive”. Also, the “reprogramming efficiency compared to the Brca1^tr/tr genotype” value in assay [1] (Brca1^tr/tr53bp1^-/- cells, 0.2 uM aphidicolin for 8 days during reprogramming) was “improvement of reprogramming efficiency”. In addition, the “sensitivity of reprogramming (colony numbers relative to wild-type)” value in assay [1] (Brca1^tr/tr cells, 0.2 uM aphidicolin for 8 days during reprogramming) is reported as “pronounced sensitivity”. Also, the reprogramming efficiency entry in assay [1] (wild type cells, 0.2 uM aphidicolin for 8 days during reprogramming) is “reduced the efficiency of the process”. Also, the “numbers of 53bp1 foci” value in assay [2] is given as “increase”.

As to `CC[C@@]1(O)C(=O)OCc2c1cc1n(c2=O)Cc2cc3c(CN(C)C)c(O)ccc3nc2-1` [topotecan], the sensitivity of reprogramming result in assay [1] (53bp1 null cells, 10 nM topotecan for 8 days during reprogramming) was “reduced sensitivity”; in assay [1] (Brca1^tr/tr53bp1^-/- cells, 10 nM topotecan for 8 days during reprogramming) it was “mild sensitivity”; in assay [1] (wild-type cells, 10 nM topotecan for 8 days during reprogramming) it was “barely sensitive”. Besides, in assay [1] (Brca1^tr/tr cells, 10 nM topotecan for 8 days during reprogramming), the reprogramming efficiency result is reported as “greatly reduced efficiency”.
